What all share (experiment): biochemical
The target of assay [1] is T1, panel of 374 wild-type kinases (Homo sapiens, UniProt P11362).
T1 construct: purchased Reaction Biology Corporation
The following applies: read-out: % Enzyme Activity (relative to DMSO controls), FGFR1.

The target in assay [2] is T2, panel of 374 wild-type kinases (Homo sapiens, UniProt P36894).
T2 construct: purchased Reaction Biology Corporation
Conditions: read-out: % Enzyme Activity (relative to DMSO controls), ALK3/BMPR1A.

In assay [3] the target is T3, panel of 374 wild-type kinases (Homo sapiens, UniProt P29320).
T3 construct: purchased Reaction Biology Corporation
T3 sequence (P29320 21-983): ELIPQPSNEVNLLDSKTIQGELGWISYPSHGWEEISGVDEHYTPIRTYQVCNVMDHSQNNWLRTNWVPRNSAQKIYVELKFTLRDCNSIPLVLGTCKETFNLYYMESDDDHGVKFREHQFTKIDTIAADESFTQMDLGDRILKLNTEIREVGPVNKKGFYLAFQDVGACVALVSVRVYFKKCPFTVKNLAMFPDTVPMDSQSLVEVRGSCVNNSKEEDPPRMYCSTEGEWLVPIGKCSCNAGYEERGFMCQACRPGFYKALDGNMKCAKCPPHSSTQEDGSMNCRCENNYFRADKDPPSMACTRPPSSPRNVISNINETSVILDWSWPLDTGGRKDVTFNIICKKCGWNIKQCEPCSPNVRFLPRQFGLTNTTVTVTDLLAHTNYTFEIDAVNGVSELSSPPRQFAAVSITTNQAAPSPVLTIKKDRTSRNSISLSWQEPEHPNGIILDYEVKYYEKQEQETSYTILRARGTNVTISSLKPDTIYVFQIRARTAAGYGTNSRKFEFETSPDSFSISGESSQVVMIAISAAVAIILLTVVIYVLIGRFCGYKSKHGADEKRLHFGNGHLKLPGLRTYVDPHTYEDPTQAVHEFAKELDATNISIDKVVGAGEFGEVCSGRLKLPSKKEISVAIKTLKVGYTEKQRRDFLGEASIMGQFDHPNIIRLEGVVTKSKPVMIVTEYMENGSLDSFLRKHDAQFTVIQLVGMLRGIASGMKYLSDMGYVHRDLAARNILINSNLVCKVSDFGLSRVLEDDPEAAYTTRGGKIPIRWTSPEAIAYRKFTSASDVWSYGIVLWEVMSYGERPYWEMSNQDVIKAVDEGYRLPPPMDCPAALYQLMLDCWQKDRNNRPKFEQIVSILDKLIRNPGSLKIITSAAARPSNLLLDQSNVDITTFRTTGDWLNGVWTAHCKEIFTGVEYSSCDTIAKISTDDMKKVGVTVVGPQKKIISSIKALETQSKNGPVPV
Conditions: read-out: % Enzyme Activity (relative to DMSO controls), EPHA3.

Assay [4] addresses T4, panel of 374 wild-type kinases (Homo sapiens, UniProt O96017).
T4 construct: purchased Reaction Biology Corporation
The following applies: read-out: % Enzyme Activity (relative to DMSO controls), CHK2.

The target of assay [5] is T5, panel of 374 wild-type kinases (Homo sapiens, UniProt Q9UEW8).
T5 construct: purchased Reaction Biology Corporation
The following applies: kinase STK39/STLK3, read-out: % Enzyme Activity (relative to DMSO controls).

Assay [6] deals with T6, panel of 374 wild-type kinases (Homo sapiens, UniProt P51955).
T6 construct: purchased Reaction Biology Corporation
T6 sequence (P51955 1-445): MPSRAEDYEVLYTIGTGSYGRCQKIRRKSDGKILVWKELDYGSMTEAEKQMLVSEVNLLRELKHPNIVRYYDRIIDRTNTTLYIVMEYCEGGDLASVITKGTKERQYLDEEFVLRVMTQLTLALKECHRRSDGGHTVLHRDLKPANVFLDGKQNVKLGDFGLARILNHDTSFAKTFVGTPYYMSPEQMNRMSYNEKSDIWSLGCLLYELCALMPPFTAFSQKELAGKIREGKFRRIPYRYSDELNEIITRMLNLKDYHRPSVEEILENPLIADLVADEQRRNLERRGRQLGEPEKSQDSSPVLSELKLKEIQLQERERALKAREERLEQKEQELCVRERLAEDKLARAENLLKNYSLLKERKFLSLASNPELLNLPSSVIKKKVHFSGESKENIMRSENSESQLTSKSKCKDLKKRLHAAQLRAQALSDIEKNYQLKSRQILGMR
The following applies: read-out: % Enzyme Activity (relative to DMSO controls), NEK2.

The target of assay [7] is T7, panel of 374 wild-type kinases (Homo sapiens, UniProt O94806).
T7 construct: purchased Reaction Biology Corporation
T7 sequence (O94806 1-890): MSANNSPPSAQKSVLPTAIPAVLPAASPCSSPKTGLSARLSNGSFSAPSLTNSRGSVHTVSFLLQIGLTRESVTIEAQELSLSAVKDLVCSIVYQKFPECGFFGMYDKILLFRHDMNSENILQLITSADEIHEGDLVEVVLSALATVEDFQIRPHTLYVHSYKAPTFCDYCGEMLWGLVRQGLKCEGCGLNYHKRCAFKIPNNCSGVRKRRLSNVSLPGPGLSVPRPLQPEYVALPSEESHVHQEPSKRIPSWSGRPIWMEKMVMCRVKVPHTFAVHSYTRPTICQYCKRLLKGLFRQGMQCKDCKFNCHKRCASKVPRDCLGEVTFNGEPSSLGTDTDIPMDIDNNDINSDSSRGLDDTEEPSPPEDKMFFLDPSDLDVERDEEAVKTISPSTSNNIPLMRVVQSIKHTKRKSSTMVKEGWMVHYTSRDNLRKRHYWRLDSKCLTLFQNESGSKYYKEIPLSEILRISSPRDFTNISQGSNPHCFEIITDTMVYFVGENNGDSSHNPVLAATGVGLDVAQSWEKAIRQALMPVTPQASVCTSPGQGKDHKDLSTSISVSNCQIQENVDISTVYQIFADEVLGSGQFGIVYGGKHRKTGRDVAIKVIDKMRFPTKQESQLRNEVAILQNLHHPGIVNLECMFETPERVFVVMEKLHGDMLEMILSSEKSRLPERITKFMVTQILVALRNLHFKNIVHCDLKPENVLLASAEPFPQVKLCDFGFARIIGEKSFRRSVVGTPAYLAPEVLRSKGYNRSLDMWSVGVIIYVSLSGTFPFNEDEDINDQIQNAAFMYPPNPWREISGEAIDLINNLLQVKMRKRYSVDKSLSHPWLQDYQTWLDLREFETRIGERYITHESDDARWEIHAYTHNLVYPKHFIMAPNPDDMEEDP
Conditions: read-out: % Enzyme Activity (relative to DMSO controls), kinase PKCnu/PRKD3.

Assay [8] has as its target T8, panel of 374 wild-type kinases (Homo sapiens, UniProt Q96NX5).
T8 construct: purchased Reaction Biology Corporation
The following applies: read-out: % Enzyme Activity (relative to DMSO controls), CAMK1g.

Remaining activity data for three compounds are collected here from patent US20240246942A1, “KINASE INHIBITORS FOR THE TREATMENT OF NEURODEGENERATIVE DISEASES” (priority 2020, published 2024).

T4 sequence (O96017 whole entry): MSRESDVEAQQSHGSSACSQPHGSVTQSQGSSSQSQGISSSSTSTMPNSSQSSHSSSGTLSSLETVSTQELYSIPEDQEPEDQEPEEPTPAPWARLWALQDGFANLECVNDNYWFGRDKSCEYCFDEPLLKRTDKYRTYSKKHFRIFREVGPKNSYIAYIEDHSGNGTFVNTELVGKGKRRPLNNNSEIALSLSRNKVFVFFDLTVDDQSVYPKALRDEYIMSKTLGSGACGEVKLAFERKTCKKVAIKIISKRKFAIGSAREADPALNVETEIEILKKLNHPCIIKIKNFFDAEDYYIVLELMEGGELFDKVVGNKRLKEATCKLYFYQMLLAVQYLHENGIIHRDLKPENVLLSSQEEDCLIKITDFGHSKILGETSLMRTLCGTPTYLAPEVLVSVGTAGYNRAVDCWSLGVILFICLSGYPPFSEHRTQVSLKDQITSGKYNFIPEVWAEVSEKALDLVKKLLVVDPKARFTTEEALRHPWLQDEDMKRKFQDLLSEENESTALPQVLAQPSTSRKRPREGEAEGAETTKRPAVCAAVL
T2 sequence (P36894 24-532): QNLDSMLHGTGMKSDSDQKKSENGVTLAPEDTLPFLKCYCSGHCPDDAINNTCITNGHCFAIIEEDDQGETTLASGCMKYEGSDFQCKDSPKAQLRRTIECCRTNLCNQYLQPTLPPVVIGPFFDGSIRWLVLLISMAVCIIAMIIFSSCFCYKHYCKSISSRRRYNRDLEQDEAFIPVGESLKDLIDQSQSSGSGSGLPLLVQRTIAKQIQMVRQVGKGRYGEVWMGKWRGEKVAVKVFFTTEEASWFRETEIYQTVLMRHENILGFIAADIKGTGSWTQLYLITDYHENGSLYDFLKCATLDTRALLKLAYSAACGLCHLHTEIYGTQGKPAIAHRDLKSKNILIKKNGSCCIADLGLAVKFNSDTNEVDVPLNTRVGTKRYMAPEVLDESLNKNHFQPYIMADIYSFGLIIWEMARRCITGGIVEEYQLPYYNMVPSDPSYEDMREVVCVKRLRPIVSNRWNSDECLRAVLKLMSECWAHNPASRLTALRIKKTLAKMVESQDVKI
T8 sequence (Q96NX5 whole entry): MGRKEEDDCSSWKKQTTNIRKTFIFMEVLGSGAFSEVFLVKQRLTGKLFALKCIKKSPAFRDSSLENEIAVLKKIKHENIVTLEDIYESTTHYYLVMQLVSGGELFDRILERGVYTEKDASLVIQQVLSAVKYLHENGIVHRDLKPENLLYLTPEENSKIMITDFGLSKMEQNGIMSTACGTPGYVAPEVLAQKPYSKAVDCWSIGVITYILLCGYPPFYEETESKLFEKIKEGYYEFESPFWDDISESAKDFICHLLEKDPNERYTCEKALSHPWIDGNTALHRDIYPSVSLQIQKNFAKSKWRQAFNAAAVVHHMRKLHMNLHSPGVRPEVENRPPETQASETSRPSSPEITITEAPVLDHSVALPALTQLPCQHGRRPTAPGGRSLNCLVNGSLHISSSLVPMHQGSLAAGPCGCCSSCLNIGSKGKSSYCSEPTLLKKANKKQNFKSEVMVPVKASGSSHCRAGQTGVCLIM
T1 sequence (P11362 22-822): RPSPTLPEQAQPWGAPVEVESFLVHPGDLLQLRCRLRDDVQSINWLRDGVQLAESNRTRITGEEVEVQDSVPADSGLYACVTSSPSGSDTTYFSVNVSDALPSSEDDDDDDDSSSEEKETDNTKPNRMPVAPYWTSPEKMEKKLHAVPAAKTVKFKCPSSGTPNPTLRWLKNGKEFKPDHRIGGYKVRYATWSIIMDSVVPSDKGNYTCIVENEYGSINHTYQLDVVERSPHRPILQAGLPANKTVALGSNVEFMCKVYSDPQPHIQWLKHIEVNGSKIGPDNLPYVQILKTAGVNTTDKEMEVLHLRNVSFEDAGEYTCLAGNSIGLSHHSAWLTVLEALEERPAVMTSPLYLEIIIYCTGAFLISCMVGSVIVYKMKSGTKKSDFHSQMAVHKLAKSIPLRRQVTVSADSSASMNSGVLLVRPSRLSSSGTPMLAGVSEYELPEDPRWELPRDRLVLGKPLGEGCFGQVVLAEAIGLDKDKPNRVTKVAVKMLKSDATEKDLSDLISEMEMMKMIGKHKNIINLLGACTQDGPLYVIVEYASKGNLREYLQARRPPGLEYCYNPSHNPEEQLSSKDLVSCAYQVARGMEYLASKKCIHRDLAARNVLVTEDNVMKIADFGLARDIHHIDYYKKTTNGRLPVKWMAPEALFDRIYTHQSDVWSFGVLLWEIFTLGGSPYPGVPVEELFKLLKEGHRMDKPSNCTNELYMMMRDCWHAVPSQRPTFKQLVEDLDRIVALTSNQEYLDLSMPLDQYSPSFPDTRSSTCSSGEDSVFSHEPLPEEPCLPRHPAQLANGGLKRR

As to `Cc1sc(C(=O)NC2COC2)cc1-n1cc(NC(=O)Nc2c(F)cccc2Cl)cn1` [Compound 27, 4-(4-(3-(2-chloro-6-fluorophenyl)ureido)-1H-pyrazol-1-yl)-5-methyl-N-(oxetan-3-yl)thiophene-2-carboxamide], the remaining activity at 10 µM in assay [1] (10 uM) is 114%; in assay [2] (10 uM), 92.5%; in assay [3] (10 uM), 109%; in assay [4] (10 uM), 95.2%; in assay [5] (10 uM) it was 64.5%; in assay [6] (10 uM), 88%. Moreover, the remaining activity at 10 µM in assay [7] (10 uM) worked out at 105%; in assay [8] (10 uM), 93.1%.

Take `O=C(Nc1cnn(-c2csc(C(=O)NC3COC3)c2)c1)Nc1c(F)cccc1Cl` [Compound 25, 4-(4-(3-(2-chloro-6-fluorophenyl)ureido)-1H-pyrazol-1-yl)-N-(oxetan-3-yl)thiophene-2-carboxamide]: the remaining activity at 5 µM turned out to be 93.2% in assay [1]; 103% in assay [2]; 96.1% in assay [3]; 91.5% in assay [4]; 82.3% in assay [5]; 96.2% in assay [6]. Moreover, the remaining activity at 5 µM came to 105% in assay [7] and 94% in assay [8].

On to `O=C(Nc1cnn(-c2csc(C(=O)NC3COC3)c2)c1)Nc1ccccc1Cl` [Compound 17, 4-(4-(3-(2-chlorophenyl)ureido)-1H-pyrazol-1-yl)-N-(oxetan-3-yl)thiophene-2-carboxamide], for which the remaining activity at 5 µM stood at 98.5% in assay [1]; 105% in assay [2]; 104% in assay [3]; 97.8% in assay [4]; 87.5% in assay [5]; 104% in assay [6]. Besides, the remaining activity at 5 µM in assay [7] was 104%; in assay [8] it was 94.2%.
